The record followed here is US10961231B2, “NTCP inhibitors” (National Institute of Biological Sciences, Beijing, priority 2018, dated 2021).

Molecules are shown by their SMILES.

The target of one experiment is T1, NTCP (Homo sapiens, UniProt Q14973).
T1 sequence (Q14973 1-349): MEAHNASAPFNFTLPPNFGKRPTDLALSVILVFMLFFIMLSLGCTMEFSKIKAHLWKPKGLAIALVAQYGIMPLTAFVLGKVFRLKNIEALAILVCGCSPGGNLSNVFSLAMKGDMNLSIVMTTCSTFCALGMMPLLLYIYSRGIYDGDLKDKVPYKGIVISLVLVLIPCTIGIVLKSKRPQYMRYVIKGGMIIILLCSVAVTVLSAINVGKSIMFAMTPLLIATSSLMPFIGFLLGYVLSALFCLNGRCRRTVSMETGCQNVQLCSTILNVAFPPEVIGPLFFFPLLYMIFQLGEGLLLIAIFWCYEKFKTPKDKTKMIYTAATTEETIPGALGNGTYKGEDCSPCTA
Put plainly: [3H]-TCA uptake assay (NTCP inhibition). The class given is cell-based. Conditions: IC50, given as a range, marked * (asterisk not explained). The method, then: [^3H]-TCA uptake assay. PTH and HepG2-NTCP cells were cultured in PMM for 24 hours to induce NTCP expression. After treated by DMSO or test compounds for 2 hours, the cells were then incubated with 1 μM [^3H]-taurocholate acid dissolved in Na^+ Ringer's buffer (the concentration of Na was 145 mM) for 15 minutes at 37° C. Subsequently, the cells were washed once in phosphate-buffered saline (PBS) and lysed in 50 μL 1% TritonX-100 in H2O for 5 minutes at room temperature. The lysate were totally transferred into a liquid scintillation 96 well plate and mixed with 200 μL liquid scintillation cocktail (Ultima Gold XR, PerkinElmer). Liquid scintillation counting was performed on a PerkinElmer 1450 LSC liquid scintillation counter.
One may read the IC50 as the concentration at which inhibition is half-maximal. A high value points to lower potency. The compound `CCCOc1cccc(OC2CC(C)C(C3C(=O)NC(CC)C(=O)N(C)CC(=O)N(C)C(CC(C)C)C(=O)NC(C(C)C)C(=O)N(C)C(CC(C)C)C(=O)NC(C)C(=O)NC(C)C(=O)N(C)C(CC(C)C)C(=O)N(C)C(CC(C)C)C(=O)N(C)C(C(C)C)C(=O)N3C)O2)c1` (stereo not shown) [Compound 31A-o] yielded an IC50 of 1 to 100 µM.

Consider `CCC1NC(=O)C(C2OC(Oc3ccc(OC)c(OC)c3)CC2C)N(C)C(=O)C(C(C)C)N(C)C(=O)C(CC(C)C)N(C)C(=O)C(CC(C)C)N(C)C(=O)C(C)NC(=O)C(C)NC(=O)C(CC(C)C)N(C)C(=O)C(C(C)C)NC(=O)C(CC(C)C)N(C)C(=O)CN(C)C1=O` (stereo not shown) [Compound 37A-o], for which the IC50 lay in the range of 1 to 100 µM.

`CCC1NC(=O)C(C2OC(OCc3cccc(N4CCOCC4)c3)CC2C)N(C)C(=O)C(C(C)C)N(C)C(=O)C(CC(C)C)N(C)C(=O)C(CC(C)C)N(C)C(=O)C(C)NC(=O)C(C)NC(=O)C(CC(C)C)N(C)C(=O)C(C(C)C)NC(=O)C(CC(C)C)N(C)C(=O)CN(C)C1=O` (stereo not shown) [Compound 95]: the IC50 was 1 to 100 µM.

Consider `CCC1NC(=O)C(C2OC(SCc3ccccc3OC)CC2C)N(C)C(=O)C(C(C)C)N(C)C(=O)C(CC(C)C)N(C)C(=O)C(CC(C)C)N(C)C(=O)C(C)NC(=O)C(C)NC(=O)C(CC(C)C)N(C)C(=O)C(C(C)C)NC(=O)C(CC(C)C)N(C)C(=O)CN(C)C1=O` (stereo not shown) [Compound 82A-s], for which the IC50 lay in the range of 1 to 100 µM.

As for `CCC1NC(=O)C(C2OC(SCc3ccc(Cl)cc3Cl)CC2C)N(C)C(=O)C(C(C)C)N(C)C(=O)C(CC(C)C)N(C)C(=O)C(CC(C)C)N(C)C(=O)C(C)NC(=O)C(C)NC(=O)C(CC(C)C)N(C)C(=O)C(C(C)C)NC(=O)C(CC(C)C)N(C)C(=O)CN(C)C1=O` (stereo not shown) [Compound 89A-s], the IC50 was 1 to 100 µM.

For `CCC1NC(=O)C(C2OC(Oc3cccc(OCc4cccs4)c3)CC2C)N(C)C(=O)C(C(C)C)N(C)C(=O)C(CC(C)C)N(C)C(=O)C(CC(C)C)N(C)C(=O)C(C)NC(=O)C(C)NC(=O)C(CC(C)C)N(C)C(=O)C(C(C)C)NC(=O)C(CC(C)C)N(C)C(=O)CN(C)C1=O` (stereo not shown) [Compound 69-o], the IC50 is 1 to 100 µM.

The experiment is the same for the next values; noted with them: IC50, given as a range; assay not given.
For the compound `CCC1NC(=O)C(C2OC(Sc3cccc(OCCC4CCCN4C)c3)CC2C)N(C)C(=O)C(C(C)C)N(C)C(=O)C(CC(C)C)N(C)C(=O)C(CC(C)C)N(C)C(=O)C(C)NC(=O)C(C)NC(=O)C(CC(C)C)N(C)C(=O)C(C(C)C)NC(=O)C(CC(C)C)N(C)C(=O)CN(C)C1=O` [Compound 15A, [2-((2R,3R)-3-methyl-5-(3-(2-(1-methylpyrrolidin-2-yl)ethoxy)phenylthio)tetrahydrofuran-2-yl)-2-(methylamino)acetic acid]^1-cyclosporin A], the IC50 lay within 1 to 10 µM.

The same experiment, now with this note: given as a range, marked * (asterisk not explained).
`CCC1NC(=O)C(C2OC(Oc3cc(Cl)cc(OCC4CCN(C)CC4)c3)CC2C)N(C)C(=O)C(C(C)C)N(C)C(=O)C(CC(C)C)N(C)C(=O)C(CC(C)C)N(C)C(=O)C(C)NC(=O)C(C)NC(=O)C(CC(C)C)N(C)C(=O)C(C(C)C)NC(=O)C(CC(C)C)N(C)C(=O)CN(C)C1=O` (stereo not shown) [Compound 71-o] showed an IC50 of 1 to 100 µM.

The experiment is the same for the next values; noted with them: given as a range; assay not given.
Compound `CCOc1cccc(SC2CC(C)C(C3C(=O)NC(CC)C(=O)N(C)CC(=O)N(C)C(CC(C)C)C(=O)NC(C(C)C)C(=O)N(C)C(CC(C)C)C(=O)NC(C)C(=O)NC(C)C(=O)N(C)C(CC(C)C)C(=O)N(C)C(CC(C)C)C(=O)N(C)C(C(C)C)C(=O)N3C)O2)c1` [Compound 29A, [2-((2R,3R)-5-(3-ethoxyphenylthio)-3-methyltetrahydrofuran-2-yl)-2-(methylamino)acetic acid]^1-cyclosporin A] registered a half-maximal inhibitory concentration (IC50) of 0.001 to 1 µM.

The compound `CCC1NC(=O)C(C2OC(Sc3cc(OC)cc(OCc4ccc(F)cc4)c3)CC2C)N(C)C(=O)C(C(C)C)N(C)C(=O)C(CC(C)C)N(C)C(=O)C(CC(C)C)N(C)C(=O)C(C)NC(=O)C(C)NC(=O)C(CC(C)C)N(C)C(=O)C(C(C)C)NC(=O)C(CC(C)C)N(C)C(=O)CN(C)C1=O` [Compound 60A, [2-((2R,3R)-5-(3-(4-fluorobenzyloxy)-5-methoxyphenylthio)-3-methyltetrahydrofuran-2-yl)-2-(methylamino)acetic acid]^1-cyclosporin A] showed an IC50 of 0.001 to 1 µM.

Take `CCOc1cc(OCC)cc(SC2CC(C)C(C3C(=O)NC(CC)C(=O)N(C)CC(=O)N(C)C(CC(C)C)C(=O)NC(C(C)C)C(=O)N(C)C(CC(C)C)C(=O)NC(C)C(=O)NC(C)C(=O)N(C)C(CC(C)C)C(=O)N(C)C(CC(C)C)C(=O)N(C)C(C(C)C)C(=O)N3C)O2)c1` [Compound 39A, [2-((2R,3R)-5-(3,5-diethoxyphenylthio)-3-methyltetrahydrofuran-2-yl)-2-(methylamino)acetic acid]^1-cyclosporin A]: the IC50 fell in the range of 0.001 to 1 µM.

The compound `CCC1NC(=O)C(C2OC(Sc3ccc(N4CCN(C)CC4)cc3)CC2C)N(C)C(=O)C(C(C)C)N(C)C(=O)C(CC(C)C)N(C)C(=O)C(CC(C)C)N(C)C(=O)C(C)NC(=O)C(C)NC(=O)C(CC(C)C)N(C)C(=O)C(C(C)C)NC(=O)C(CC(C)C)N(C)C(=O)CN(C)C1=O` [Compound 6A, [2-((2R,3R)-3-methyl-5-(4-(4-methylpiperazin-1-yl)phenylthio)tetrahydrofuran-2-yl)-2-(methylamino)acetic acid]^1-cyclosporin A] registered an IC50 of 0.001 to 1 µM.

In the case of `CCC1NC(=O)C(C2OC(Sc3cccc(OC(C)c4ccccc4)c3)CC2C)N(C)C(=O)C(C(C)C)N(C)C(=O)C(CC(C)C)N(C)C(=O)C(CC(C)C)N(C)C(=O)C(C)NC(=O)C(C)NC(=O)C(CC(C)C)N(C)C(=O)C(C(C)C)NC(=O)C(CC(C)C)N(C)C(=O)CN(C)C1=O` [Compound 34A, [2-((2R,3R)-3-methyl-5-(3-(1-phenylethoxy)phenylthio)tetrahydrofuran-2-yl)-2-(methylamino)acetic acid]^1-cyclosporin A], the half-inhibitory concentration (IC50) was in the range of 0.001 to 1 µM.

`CCC1NC(=O)C(C2OC(Sc3ccc(Cl)c(OCC4CCOCC4)c3)CC2C)N(C)C(=O)C(C(C)C)N(C)C(=O)C(CC(C)C)N(C)C(=O)C(CC(C)C)N(C)C(=O)C(C)NC(=O)C(C)NC(=O)C(CC(C)C)N(C)C(=O)C(C(C)C)NC(=O)C(CC(C)C)N(C)C(=O)CN(C)C1=O` [Compound 43A, [2-((2R,3R)-5-(4-chloro-3-((tetrahydro-2H-pyran-4-yl)methoxy)phenylthio)-3-methyltetrahydrofuran-2-yl)-2-(methylamino)acetic acid]^1-cyclosporin A] yielded an IC50 of 0.001 to 1 µM.

The compound `CCC1NC(=O)C(C2OC(Sc3cccc(OCc4ccc5ccc(=O)oc5c4)c3)CC2C)N(C)C(=O)C(C(C)C)N(C)C(=O)C(CC(C)C)N(C)C(=O)C(CC(C)C)N(C)C(=O)C(C)NC(=O)C(C)NC(=O)C(CC(C)C)N(C)C(=O)C(C(C)C)NC(=O)C(CC(C)C)N(C)C(=O)CN(C)C1=O` [Compound 58A, [2-((2R,3R)-3-methyl-5-(3-((2-oxo-2H-chromen-7-yl)methoxy)phenylthio)tetrahydrofuran-2-yl)-2-(methylamino)acetic acid]^1-cyclosporin A] displayed an IC50 of 0.001 to 1 µM.

As to `CCC1NC(=O)C(C2OC(Sc3cccc(OCCc4ccccc4)c3)CC2C)N(C)C(=O)C(C(C)C)N(C)C(=O)C(CC(C)C)N(C)C(=O)C(CC(C)C)N(C)C(=O)C(C)NC(=O)C(C)NC(=O)C(CC(C)C)N(C)C(=O)C(C(C)C)NC(=O)C(CC(C)C)N(C)C(=O)CN(C)C1=O` [Compound 35A, [2-((2R,3R)-3-methyl-5-(3-phenethoxyphenylthio)tetrahydrofuran-2-yl)-2-(methylamino)acetic acid]^1-cyclosporin A], the IC50 was 0.001 to 1 µM.
